How the values were obtained:
NCI/ADR-RES = test: Antiproliferative activity against human NCI/ADR-RES cells assessed as cell growth at 10 uM relative to control; type: functional; details: read-out: Activity
LOX IMVI = test: Antiproliferative activity against human LOX IMVI cells assessed as cell growth at 10 uM relative to control; type: functional; details: read-out: Activity
Malme-3M = test: Antiproliferative activity against human MALME-3M cells assessed as cell growth at 10 uM relative to control; type: functional; details: read-out: Activity
U-251 = test: Antiproliferative activity against human U-251 cells assessed as cell growth at 10 uM relative to control; type: functional; details: read-out: Activity
SNB-75 = test: Antiproliferative activity against human SNB-75 cells assessed as cell growth at 10 uM relative to control; type: functional; details: read-out: Activity
SNB-19 = test: Antiproliferative activity against human SNB-19 cells assessed as cell growth at 10 uM relative to control; type: functional; details: read-out: Activity
SF-539 = test: Antiproliferative activity against human SF-539 cells assessed as cell growth at 10 uM relative to control; type: functional; details: read-out: Activity
SF-295 = test: Antiproliferative activity against human SF-295 cells assessed as cell growth at 10 uM relative to control; type: functional; details: read-out: Activity
SF-268 = test: Antiproliferative activity against human SF-268 cells assessed as cell growth at 10 uM relative to control; type: functional; details: read-out: Activity
SW-620 = test: Antiproliferative activity against human SW-620 cells assessed as cell growth at 10 uM relative to control; type: functional; details: read-out: Activity
KM12 = test: Antiproliferative activity against human KM12 cells assessed as cell growth at 10 uM relative to control; type: functional; details: read-out: Activity
HT-29 = test: Antiproliferative activity against human HT-29 cells assessed as cell growth at 10 uM relative to control; type: functional; details: read-out: Activity
HCT-15 = test: Antiproliferative activity against human HCT-15 cells assessed as cell growth at 10 uM relative to control; type: functional; details: read-out: Activity
HCT-116 = test: Antiproliferative activity against human HCT-116 cells assessed as cell growth at 10 uM relative to control; type: functional; details: read-out: Activity
HCC 2998 = test: Antiproliferative activity against human HCC 2998 cells assessed as cell growth at 10 uM relative to control; type: functional; details: read-out: Activity
COLO 205 = test: Antiproliferative activity against human COLO 205 cells assessed as cell growth at 10 uM relative to control; type: functional; details: read-out: Activity
NCI-H522 = test: Antiproliferative activity against human NCI-H522 cells assessed as cell growth at 10 uM relative to control; type: functional; details: read-out: Activity
NCI-H460 = test: Antiproliferative activity against human NCI-H460 cells assessed as cell growth at 10 uM relative to control; type: functional; details: read-out: Activity
NCI-H322M = test: Antiproliferative activity against human NCI-H322M cells assessed as cell growth at 10 uM relative to control; type: functional; details: read-out: Activity
NCI-H23 = test: Antiproliferative activity against human NCI-H23 cells assessed as cell growth at 10 uM relative to control; type: functional; details: read-out: Activity
NCI-H226 = test: Antiproliferative activity against human NCI-H226 cells assessed as cell growth at 10 uM relative to control; type: functional; details: read-out: Activity
HOP-92 = test: Antiproliferative activity against human HOP-92 cells assessed as cell growth at 10 uM relative to control; type: functional; details: read-out: Activity
HOP-62 = test: Antiproliferative activity against human HOP-62 cells assessed as cell growth at 10 uM relative to control; type: functional; details: read-out: Activity
EKVX = test: Antiproliferative activity against human EKVX cells assessed as cell growth at 10 uM relative to control; type: functional; details: read-out: Activity
A549 = test: Antiproliferative activity against human A549 cells assessed as cell growth at 10 uM relative to control; type: functional; details: read-out: Activity
SR = test: Antiproliferative activity against human SR cells assessed as cell growth at 10 uM relative to control; type: functional; details: read-out: Activity
RPMI-8226 = test: Antiproliferative activity against human RPMI-8226 cells assessed as cell growth at 10 uM relative to control; type: functional; details: read-out: Activity
MOLT-4 = test: Antiproliferative activity against human MOLT-4 cells assessed as cell growth at 10 uM relative to control; type: functional; details: read-out: Activity
K562 = test: Antiproliferative activity against human K562 cells assessed as cell growth at 10 uM relative to control; type: functional; details: read-out: Activity
HL-60(TB) = test: Antiproliferative activity against human HL-60(TB) cells assessed as cell growth at 10 uM relative to control; type: functional; details: read-out: Activity
CCRF-CEM = test: Antiproliferative activity against human CCRF-CEM cells assessed as cell growth at 10 uM relative to control; type: functional; details: read-out: Activity
MDA-MB-468 = test: Antiproliferative activity against human MDA-MB-468 cells assessed as cell growth at 10 uM relative to control; type: functional; details: read-out: Activity
T47D = test: Antiproliferative activity against human T47D cells assessed as cell growth at 10 uM relative to control; type: functional; details: read-out: Activity
BT-549 = test: Antiproliferative activity against human BT-549 cells assessed as cell growth at 10 uM relative to control; type: functional; details: read-out: Activity
Hs-578T = test: Antiproliferative activity against human Hs-578T cells assessed as cell growth at 10 uM relative to control; type: functional; details: read-out: Activity
MDA-MB-231 = test: Antiproliferative activity against human MDA-MB-231 cells assessed as cell growth at 10 uM relative to control; type: functional; details: read-out: Activity
MCF7 = test: Antiproliferative activity against human MCF7 cells assessed as cell growth at 10 uM relative to control; type: functional; details: read-out: Activity
DU-145 = test: Antiproliferative activity against human DU-145 cells assessed as cell growth at 10 uM relative to control; type: functional; details: read-out: Activity
PC-3 = test: Antiproliferative activity against human PC-3 cells assessed as cell growth at 10 uM relative to control; type: functional; details: read-out: Activity
UO-31 = test: Antiproliferative activity against human UO-31 cells assessed as cell growth at 10 uM relative to control; type: functional; details: read-out: Activity
TK-10 = test: Antiproliferative activity against human TK-10 cells assessed as cell growth at 10 uM relative to control; type: functional; details: read-out: Activity
SN12C = test: Antiproliferative activity against human SN12C cells assessed as cell growth at 10 uM relative to control; type: functional; details: read-out: Activity
RXF 393 = test: Antiproliferative activity against human RXF 393 cells assessed as cell growth at 10 uM relative to control; type: functional; details: read-out: Activity
CAKI-1 = test: Antiproliferative activity against human CAKI-1 cells assessed as cell growth at 10 uM relative to control; type: functional; details: read-out: Activity
ACHN = test: Antiproliferative activity against human ACHN cells assessed as cell growth at 10 uM relative to control; type: functional; details: read-out: Activity
A498 = test: Antiproliferative activity against human A498 cells assessed as cell growth at 10 uM relative to control; type: functional; details: read-out: Activity
786-0 = test: Antiproliferative activity against human 786-0 cells assessed as cell growth at 10 uM relative to control; type: functional; details: read-out: Activity
SK-OV-3 = test: Antiproliferative activity against human SK-OV-3 cells assessed as cell growth at 10 uM relative to control; type: functional; details: read-out: Activity
OVCAR-8 = test: Antiproliferative activity against human OVCAR-8 cells assessed as cell growth at 10 uM relative to control; type: functional; details: read-out: Activity
OVCAR-5 = test: Antiproliferative activity against human OVCAR-5 cells assessed as cell growth at 10 uM relative to control; type: functional; details: read-out: Activity
OVCAR-4 = test: Antiproliferative activity against human OVCAR-4 cells assessed as cell growth at 10 uM relative to control; type: functional; details: read-out: Activity
OVCAR-3 = test: Antiproliferative activity against human OVCAR-3 cells assessed as cell growth at 10 uM relative to control; type: functional; details: read-out: Activity
IGROV-1 = test: Antiproliferative activity against human IGROV-1 cells assessed as cell growth at 10 uM relative to control; type: functional; details: read-out: Activity
UACC-62 = test: Antiproliferative activity against human UACC-62 cells assessed as cell growth at 10 uM relative to control; type: functional; details: read-out: Activity
UACC-257 = test: Antiproliferative activity against human UACC-257 cells assessed as cell growth at 10 uM relative to control; type: functional; details: read-out: Activity
SK-MEL-5 = test: Antiproliferative activity against human SK-MEL-5 cells assessed as cell growth at 10 uM relative to control; type: functional; details: read-out: Activity
SK-MEL-28 = test: Antiproliferative activity against human SK-MEL-28 cells assessed as cell growth at 10 uM relative to control; type: functional; details: read-out: Activity
SK-MEL-2 = test: Antiproliferative activity against human SK-MEL-2 cells assessed as cell growth at 10 uM relative to control; type: functional; details: read-out: Activity
MDA-MB-435 = test: Antiproliferative activity against human MDA-MB-435 cells assessed as cell growth at 10 uM relative to control; type: functional; details: read-out: Activity
M14 = test: Antiproliferative activity against human M14 cells assessed as cell growth at 10 uM relative to control; type: functional; details: read-out: Activity
[1] = molecular target: High affinity nerve growth factor receptor (Homo sapiens, UniProt P04629); test: Inhibition of recombinant His-tagged human TRKA (441 to 796 residues) expressed in baculovirus expression system using 5-FAM-EEPLYWSFPAKKK-CONH2 as substrate preincubated for 1 hr followed by substrate addition in presence of ATP by mobility shift assay
Chain of High affinity nerve growth factor receptor (P04629 whole entry, the tested form may be a part): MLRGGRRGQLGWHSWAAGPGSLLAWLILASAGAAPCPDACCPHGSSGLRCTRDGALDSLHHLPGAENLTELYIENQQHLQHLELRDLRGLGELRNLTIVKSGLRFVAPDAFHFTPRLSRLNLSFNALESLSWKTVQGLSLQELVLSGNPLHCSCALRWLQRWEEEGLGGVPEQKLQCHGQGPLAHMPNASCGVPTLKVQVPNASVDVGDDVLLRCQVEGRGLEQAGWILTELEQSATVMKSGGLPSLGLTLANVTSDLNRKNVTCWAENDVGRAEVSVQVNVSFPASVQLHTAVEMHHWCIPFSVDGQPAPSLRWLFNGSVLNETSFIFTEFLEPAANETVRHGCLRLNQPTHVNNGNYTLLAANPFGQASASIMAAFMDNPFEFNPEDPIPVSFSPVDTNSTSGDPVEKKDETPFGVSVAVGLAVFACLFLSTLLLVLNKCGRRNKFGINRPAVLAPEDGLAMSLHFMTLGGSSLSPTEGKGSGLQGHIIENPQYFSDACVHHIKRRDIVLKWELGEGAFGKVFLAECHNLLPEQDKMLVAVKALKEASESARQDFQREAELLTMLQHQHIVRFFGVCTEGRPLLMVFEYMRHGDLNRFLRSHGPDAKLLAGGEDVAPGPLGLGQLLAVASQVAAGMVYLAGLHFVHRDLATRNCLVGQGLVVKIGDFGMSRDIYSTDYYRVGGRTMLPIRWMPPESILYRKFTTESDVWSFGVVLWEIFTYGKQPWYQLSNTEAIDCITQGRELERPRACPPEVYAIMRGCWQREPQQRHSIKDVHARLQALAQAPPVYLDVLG

Cn1cc(-c2cc3ncnc(Nc4ccc(CC(=O)Nc5ccc(C(C)(C)C)cc5)cc4)c3s2)cn1
growth at 10 µM (NCI/ADR-RES): 108%
growth at 10 µM (LOX IMVI): 106%
growth at 10 µM (Malme-3M): 102%
growth at 10 µM (U-251): 88.3%
growth at 10 µM (SNB-75): 75%
growth at 10 µM (SNB-19): 101%
growth at 10 µM (SF-539): 66.9%
growth at 10 µM (SF-295): 117%
growth at 10 µM (SF-268): 101%
growth at 10 µM (SW-620): 119%
growth at 10 µM (KM12): 22.4%
growth at 10 µM (HT-29): 102%
growth at 10 µM (HCT-15): 102%
growth at 10 µM (HCT-116): 104%
growth at 10 µM (HCC 2998): 136%
growth at 10 µM (COLO 205): 120%
growth at 10 µM (NCI-H522): 93%
growth at 10 µM (NCI-H460): 99%
growth at 10 µM (NCI-H322M): 99.7%
growth at 10 µM (NCI-H23): 106%
growth at 10 µM (NCI-H226): 95.5%
growth at 10 µM (HOP-92): 132%
growth at 10 µM (HOP-62): 125%
growth at 10 µM (EKVX): 93.2%
growth at 10 µM (A549): 98.3%
growth at 10 µM (SR): 102%
growth at 10 µM (RPMI-8226): 103%
growth at 10 µM (MOLT-4): 97.5%
growth at 10 µM (K562): 91.5%
growth at 10 µM (HL-60(TB)): 97.8%
growth at 10 µM (CCRF-CEM): 100%
growth at 10 µM (MDA-MB-468): 90.9%
growth at 10 µM (T47D): 93.7%
growth at 10 µM (BT-549): 107%
growth at 10 µM (Hs-578T): 88.8%
growth at 10 µM (MDA-MB-231): 105%
growth at 10 µM (MCF7): 96.2%
growth at 10 µM (DU-145): 98.2%
growth at 10 µM (PC-3): 99.1%
growth at 10 µM (UO-31): 102%
growth at 10 µM (TK-10): 98.6%
growth at 10 µM (SN12C): 98.5%
growth at 10 µM (RXF 393): 93.2%
growth at 10 µM (CAKI-1): 86%
growth at 10 µM (ACHN): 84.3%
growth at 10 µM (A498): 88.1%
growth at 10 µM (786-0): 101%
growth at 10 µM (SK-OV-3): 120%
growth at 10 µM (OVCAR-8): 103%
growth at 10 µM (OVCAR-5): 118%
growth at 10 µM (OVCAR-4): 98.6%
growth at 10 µM (OVCAR-3): 110%
growth at 10 µM (IGROV-1): 98.2%
growth at 10 µM (UACC-62): 101%
growth at 10 µM (UACC-257): 110%
growth at 10 µM (SK-MEL-5): 98.3%
growth at 10 µM (SK-MEL-28): 107%
growth at 10 µM (SK-MEL-2): 105%
growth at 10 µM (MDA-MB-435): 104%
growth at 10 µM (M14): 102%

COc1cc(-c2cc3ncnc(Nc4ccc(CC(=O)Nc5ccc(F)c(Cl)c5)cc4)c3s2)cc(OC)c1OC
IC50 [1]: > 200 µM

Reference: ChEMBL document CHEMBL4813963, “Discovery of pyrazolo-thieno[3,2-d]pyrimidinylamino-phenyl acetamides as type-II pan-tropomyosin receptor kinase (TRK) inhibitors: Design, synthesis, and biological evaluation” (Eur J Med Chem, 2021)
